# In the PolyMetriX glass transition set:
row,SMILES,glass transition temperature [°C]
1,*C/C(C)=C/C(C)S(*)(=O)=O (repeat unit),83.00
2,*CCCc1nc2cc(-c3ccc4[nH]c(*)nc4c3)ccc2[nH]1 (repeat unit),275.00
3,*Oc1ccc(C(C)(C)c2ccc(Oc3nc(*)nc(Cl)n3)cc2)cc1 (repeat unit),80.00
4,*Oc1ccc(C2(c3ccc(Oc4ccc(C(=O)c5cccc(C(=O)c6ccc(*)cc6)c5)cc4)cc3)c3ccccc3-c3ccccc32)cc1 (repeat unit),223.00
5,*Oc1ccc(C2(c3ccc(Oc4ccc5c(=O)n6c7cc(-c8ccc9c(c8)nc8c%10ccc(*)c%11cccc(c(=O)n98)c%11%10)ccc7nc6c6cccc4c56)cc3)c3ccccc3C(=O)c3ccccc32)cc1 (repeat unit),428.00
6,*Oc1ccc(S(=O)(=O)c2ccc(Oc3ccc(/C=C4\CCC/C(=C\c5ccc(Oc6ccc(S(=O)(=O)c7ccc(Oc8ccc(C(C)(C)c9ccc(*)cc9)cc8)cc7)cc6)cc5)C4=O)cc3)cc2)cc1 (repeat unit),194.00
7,*Oc1ccc(S(=O)(=O)c2ccc(Oc3ccc(C(c4ccc(*)c([Si](C)(C)C)c4)(C(F)(F)F)C(F)(F)F)cc3[Si](C)(C)C)cc2)cc1 (repeat unit),168.60
8,*c1ccc(*)c(C(=O)c2ccccc2)c1 (repeat unit),180.00
9,*c1ccc(C(=O)c2ccc(-n3nc(-c4ccccc4)c4cc(Oc5ccc(C(C)(C)c6ccc(Oc7ccc8c(-c9ccccc9)nn(*)c(=O)c8c7)cc6)cc5)ccc4c3=O)cc2)cc1 (repeat unit),195.00
10,*c1ccc(Cc2ccc(N3C(=O)c4ccc([Si](C)(C)c5ccc([Si](C)(C)c6ccc7c(c6)C(=O)N(*)C7=O)cc5)cc4C3=O)cc2)cc1 (repeat unit),295.00
11,*c1ccc(Oc2ccc(C(=O)c3cccc(C(=O)c4ccc(Oc5ccc(-n6c(=O)c7cc8c(=O)n(*)c(=O)c8cc7c6=O)cc5)cc4)c3)cc2)cc1 (repeat unit),247.00
12,*c1ccc(Oc2ccc(C(=O)c3cccc(C(=O)c4ccc(Oc5ccc(-n6c(=O)c7cc8c(=O)n(*)c(=O)c8cc7c6=O)cc5)cc4)n3)cc2)cc1 (repeat unit),324.60
13,*c1ccc(Oc2ccc(C(c3ccc(Oc4ccc(N5C(=O)c6ccc(Oc7ccc(C8(c9ccc(Oc%10ccc%11c(c%10)C(=O)N(*)C%11=O)cc9)CCC(C(C)(C)C)CC8)cc7)cc6C5=O)cc4)cc3)(C(F)(F)F)C(F)(F)F)cc2)cc1 (repeat unit),227.00
14,*c1ccc(Oc2ccc(C3(c4ccc(Oc5ccc(N6C(=O)c7ccc(Oc8ccc(C9(c%10ccc(Oc%11ccc%12c(c%11)C(=O)N(*)C%12=O)cc%10)CCC(C(C)(C)C)CC9)cc8)cc7C6=O)cc5)cc4)C4CC5CC(C4)CC3C5)cc2)cc1 (repeat unit),266.00
15,*c1ccc(Oc2ccc(N3C(=O)c4cccc(Oc5ccc(C(C)(C)c6ccc(Oc7cccc8c7C(=O)N(*)C8=O)cc6)cc5)c4C3=O)cc2)cc1 (repeat unit),235.00
16,*c1ccc(Oc2ccc(S(=O)(=O)c3ccc(Oc4ccc(C5(*)OC(=O)c6ccccc65)cc4C)cc3)cc2)c(C)c1 (repeat unit),245.00
17,*c1ccc(Oc2cccc(Oc3ccc(N4C(=O)c5ccc(Oc6ccc(C(C)(C)c7ccc(Oc8ccc9c(c8)C(=O)N(*)C9=O)cc7)cc6)cc5C4=O)cc3)c2C#N)cc1 (repeat unit),213.00
18,*c1ccc(S(*)(=O)=O)cc1 (repeat unit),219.50
19,*c1ccc(S(=O)(=O)c2ccc(N3C(=O)c4ccc(Oc5ccc(C(C)(C)c6ccc(Oc7ccc8c(c7)C(=O)N(*)C8=O)cc6)cc5)cc4C3=O)cc2)cc1 (repeat unit),267.00
20,*c1ccc([Si](CCCC)(CCCC)[Si](*)(CCCC)CCCC)s1 (repeat unit),-53.00
21,*c1ccc([Si](c2ccccc2)(c2ccccc2)c2ccc(-c3ccc4c(c3)c3cc(*)ccc3n4CCCCCC#N)cc2)cc1 (repeat unit),165.00
22,*c1ccc2[nH]c(*)nc2c1 (repeat unit),398.00
23,*c1cccc(Cc2cccc(N3C(=O)c4ccc([Si](C)(C)c5ccc([Si](C)(C)c6ccc7c(c6)C(=O)N(*)C7=O)cc5)cc4C3=O)c2)c1 (repeat unit),246.00
24,*c1cccc(N2C(=O)c3ccc(Oc4ccc(C(C)(C)c5ccc(Oc6ccc7c(c6)C(=O)N(*)C7=O)cc5)cc4)cc3C2=O)c1 (repeat unit),217.50
25,*c1cccc(P(=O)(c2ccccc2)c2cccc(N3C(=O)c4ccc(Oc5ccc(C(C)(C)c6ccc(Oc7ccc8c(c7)C(=O)N(*)C8=O)cc6)cc5)cc4C3=O)c2)c1 (repeat unit),213.00
26,*c1cccc(P(C)(=O)c2cccc(N3C(=O)c4ccc(Oc5ccc(C(C)(C)c6ccc(Oc7ccc8c(c7)C(=O)N(*)C8=O)cc6)cc5)cc4C3=O)c2)c1 (repeat unit),228.00

# Second part, the molecule after the results:
row,glass transition temperature [°C],SMILES
1,168.10,*Oc1ccc(C(c2ccc(Oc3ccc(C(=O)c4cccc(C(=O)c5ccc(*)cc5)c4)cc3)cc2)(C(F)(F)F)C(F)(F)F)cc1 (repeat unit)
2,225.00,*Oc1ccc(S(=O)(=O)c2ccc(*)cc2)cc1 (repeat unit)
3,237.10,*Oc1ccc(S(=O)(=O)c2ccc(Oc3ccc(C(C)(C)c4ccc(*)c(N)c4)cc3N)cc2)c(N)c1 (repeat unit)
4,230.40,*Oc1ccc(S(=O)(=O)c2ccc(Oc3ccc(C(C)(C)c4ccc(*)c(N)c4)cc3N)cc2)cc1 (repeat unit)
5,163.00,*Oc1ccc(S(=O)(=O)c2ccc(Oc3ccc(C(C)(CCC(=O)O)c4ccc(*)cc4)cc3)cc2)cc1 (repeat unit)
6,207.00,*Oc1ccc(S(=O)(=O)c2ccc(Oc3ccc(C(C)(c4ccccc4)c4ccc(*)cc4)cc3)cc2)cc1 (repeat unit)
7,175.00,*Oc1ccc(S(=O)(=O)c2ccc(Oc3ccc(Sc4ccc(*)cc4)cc3)cc2)cc1 (repeat unit)
8,268.00,*c1ccc(N2C(=O)c3ccc(Oc4ccc(C(C)(C)c5cccc(Oc6ccc7c(c6)C(=O)N(*)C7=O)c5)cc4)cc3C2=O)cc1 (repeat unit)
9,211.00,*c1ccc(Oc2ccc(Sc3ccc(Oc4ccc(-c5nc(*)nc(-c6ccccc6)n5)cc4)cc3)cc2)cc1 (repeat unit)
10,255.00,*c1ccc(Oc2ccc3ccc(Oc4ccc(-c5nc(*)nc(-c6ccccc6)n5)cc4)cc3c2)cc1 (repeat unit)
11,151.50,*c1ccc(Oc2ccc3ccc(Oc4ccc(N5C(=O)CC(=O)N(*)C5=S)cc4)cc3c2)cc1 (repeat unit)
12,145.00,*c1ccc(Oc2cccc(Oc3ccc(N4C(=O)CC(=O)N(*)C4=S)cc3)c2)cc1 (repeat unit)
13,313.00,*c1ccc(Oc2ccccc2Oc2ccc(-n3c(=O)c4cc5c(=O)n(*)c(=O)c5cc4c3=O)cc2)cc1 (repeat unit)
14,279.00,*c1ccc(Sc2ccc(-c3nn(-c4ccc(S(=O)(=O)c5ccc(-n6nc(*)c7ccccc7c6=O)cc5)cc4)c(=O)c4ccccc34)cc2)cc1 (repeat unit)
15,121.00,*c1ccc(Sc2cccc(Sc3ccc(S(*)=O)cc3)c2)cc1 (repeat unit)
